Assay results taken from US20250255978A1, “DRUG-DELIVERY NANOPARTICLES AND TREATMENTS FOR DRUG-RESISTANT CANCER” (Cedars-Sinai Medical Center, priority 2016, published 2025).

Experiments:
Test in all cases: Cell viability assay (MTS), relative cell survival
Details in all cases: dose range, 4 h + 44 h incubation
[1] = system: BT474 (human breast cancer) cells; assay type: cell-based
Experimental: (§1) Plates were rocked for 4 hours at 37° C. and 5% CO2 and then 60 μL of complete media was added to each well to bring the total volume to 100 μL and the incubation was continued, without rocking, for 44 hours at 37° C. and 5% CO2. At the conclusion of the incubation, relative cell viability was determined via MTS assay (Promega) according to manufacturer's instructions. Specifically, the media was removed from the wells and 100 μL of fresh complete media was added to each well. 20 μl of the prepared MTS reagent was added to each well. The plate was then incubated with rocking at 37° C. and 5% CO2 and readings were taken of the plate at 1, 2, and 3 hours at 490 nm using a spectrophotometer.
(§2) The cells per well were plated in black-walled, clear-bottom, 96-well plates. […] At the conclusion of the incubation, relative cell viability was determined via MTS assay (Promega) according to manufacturer's instructions. […] The plate was then incubated with rocking at 37° C. and 5% CO2 and readings were taken of the plate at 1, 2, and 3 hours at 490 nm using a spectrophotometer. […]
(§3) The cells per well were plated in black-walled, clear-bottom, 96-well plates. […] At the conclusion of the incubation, relative cell viability was determined via MTS assay (Promega) according to manufacturer's instructions. […]

[2] = system: BT474-TR (trastuzumab-resistant human breast cancer) cells; assay type: cell-based
Experimental: as §1, with “The cells per well were plated in black-walled, clear-bottom, 96-well plates. […] Plates” for “Plates”
as §3, §3

[3] = system: JIMT1 (human breast cancer cells from a patient naturally resistant to trastuzumab); assay type: cell-based
Experimental: as §1, with “Relative cell survival after exposure to the described compositions was measured using a cell viability assay. 15,000, 10,000, or 8,000 cells per well were plated in black-walled, clear-bottom, 96-well plates. […] Plates” for “Plates”, “spectrophotometer. […]” for “spectrophotometer.”
as §2, with “concentration of Eos-001 is reported” for “cells per well were plated”, “μM doxorubicin, and the concentration of lapatinib is reported in μM lapatinib.” for “black-walled, clear-bottom, 96-well plates.”, “on” for “using a”

[4] = system: SKBR3 (human breast cancer) cells; assay type: cell-based
Experimental: as §1, with “The cells per well were plated in black-walled, clear-bottom, 96-well plates. […] Plates” for “Plates”
(§4) To verify the contribution of HER3 targeted toxicity of the Eos-001 nanoparticles, a HER3 peptide was used as a competitive inhibitor. The HER3 peptide was pre-incubated with the Eos-001 particles, which bound the heregulin targeting domain. […]
as §3

[5] = system: SKBR3-TR (trastuzumab resistant breast cancer) cells; assay type: cell-based, human
Experimental: as §1, with “The cells per well were plated in black-walled, clear-bottom, 96-well plates. […] Plates” for “Plates”
as §4, §3

SMILES: CS(=O)(=O)CCNCc1ccc(-c2ccc3ncnc(Nc4ccc(OCc5cccc(F)c5)c(Cl)c4)c3c2)o1 [lapatinib]
- effect on survival / killing of BT474 cells [1]: similarly effective
- killing of BT474-TR cells [2]: slightly effective
- effect on survival / killing of JIMT1 cells [3]: unable to kill
- killing of SKBR3 cells [4]: similarly effective
- killing of SKBR3-TR cells [5]: slightly effective
